Source: ChEMBL document CHEMBL5050844 (2019)

Experiments:
[1] = Induction of anti-CD3/CD28 antibodies-stimulated human T cell activation at 0.3 uM assessed fold increase in CD25 expression measured by ELISA assay; assay type: functional, T cell line
[2] = Induction of anti-CD3 antibodies-stimulated human T cell activation at 1 uM assessed fold increase in IL-2 secretion measured by ELISA assay; assay type: functional, T cell line; further: reference of the scale not given here
[3] = Induction of anti-CD3/CD28 antibodies-stimulated human T cell activation at 1 uM assessed fold increase in IL-2 secretion measured by ELISA assay; assay type: functional, T cell line
[4] = Induction of anti-CD3/CD28 antibodies-stimulated human T cell activation at 1 uM assessed fold increase in CD25 expression measured by ELISA assay; assay type: functional, T cell line
[5] = Induction of anti-CD3 antibodies-stimulated human T cell activation at 1 uM assessed fold increase in CD25 expression measured by ELISA assay; assay type: functional, T cell line; further: reference of the scale not given here
[6] = Induction of anti-CD3/CD28 antibodies-stimulated human T cell activation at 0.3 uM assessed fold increase in IL-2 secretion measured by ELISA assay; assay type: functional, T cell line
[7] = target: E3 ubiquitin-protein ligase CBL-B (Homo sapiens, UniProt Q13191); assay: Inhibition of N-terminal Avi-tagged human CBL-B (36 to 427 residues) incubated with 60 nM Src kinase for 1.5 hrs followed by incubation with fluorescently labeled UbcH5B-Ub for 1 hr and measured by TR-FRET assay; assay type: single protein
Chain of E3 ubiquitin-protein ligase CBL-B (Q13191 whole entry, the tested form may be a part): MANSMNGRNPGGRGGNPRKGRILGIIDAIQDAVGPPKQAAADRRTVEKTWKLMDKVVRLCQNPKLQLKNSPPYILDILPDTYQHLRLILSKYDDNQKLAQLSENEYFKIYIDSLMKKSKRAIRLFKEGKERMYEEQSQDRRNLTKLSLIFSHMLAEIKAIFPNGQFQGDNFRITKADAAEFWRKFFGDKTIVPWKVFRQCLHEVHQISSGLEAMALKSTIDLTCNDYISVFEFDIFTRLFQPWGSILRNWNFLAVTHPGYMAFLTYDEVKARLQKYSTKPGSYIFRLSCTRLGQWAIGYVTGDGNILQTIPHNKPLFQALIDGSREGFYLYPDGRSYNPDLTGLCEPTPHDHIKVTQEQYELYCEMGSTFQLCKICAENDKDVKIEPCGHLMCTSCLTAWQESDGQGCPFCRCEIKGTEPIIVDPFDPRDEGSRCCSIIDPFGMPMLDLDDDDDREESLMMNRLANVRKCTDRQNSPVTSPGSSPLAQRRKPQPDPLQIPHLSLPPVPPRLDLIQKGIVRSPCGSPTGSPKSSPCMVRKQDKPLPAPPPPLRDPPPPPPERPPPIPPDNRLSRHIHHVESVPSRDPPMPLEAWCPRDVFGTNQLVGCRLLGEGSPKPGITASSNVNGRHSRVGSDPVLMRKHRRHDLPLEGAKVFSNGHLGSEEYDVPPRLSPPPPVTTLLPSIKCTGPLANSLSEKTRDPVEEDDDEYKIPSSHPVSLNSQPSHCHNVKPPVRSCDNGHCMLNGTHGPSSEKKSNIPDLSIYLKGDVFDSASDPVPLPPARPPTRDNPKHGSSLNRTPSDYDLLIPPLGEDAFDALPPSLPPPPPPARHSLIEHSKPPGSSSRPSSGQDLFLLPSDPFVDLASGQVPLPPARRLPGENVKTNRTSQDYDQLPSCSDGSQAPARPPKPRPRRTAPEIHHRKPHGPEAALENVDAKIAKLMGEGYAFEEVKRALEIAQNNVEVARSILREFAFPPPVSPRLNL

Row | Structure (SMILES) | fold change (FC) [1] | fold change (FC) [2] | fold change (FC) [3] | fold change (FC) [4] | fold change (FC) [5] | fold change (FC) [6] | IC50 [7] [nM] | fold change (FC) ([1]; 0.3 µM) | fold change (FC) ([2]; 1 µM) | fold change (FC) ([4]; 1 µM) | fold change (FC) ([5]; 1 µM)
1 | Cc1cc(C(=O)Nc2cccc(C3(C(F)(F)c4nncn4C)CC3)c2)nc(C2CC2)n1 | 1.01 | 0.101 | 2.51 | 1.01 | 0.601 | 1.01 | < 100 | – | – | – | –
2 | Cn1cnnc1CC1(c2cccc(N3Cc4c(cc(OC5CNC5)cc4C(F)(F)F)C3=O)c2)COC1 | 1.01 | 0.051 | 1.01 | 1.01 | 0.801 | 1.01 | < 100 | – | – | – | –
3 | Cn1cnnc1[C@@H](F)C1(c2cccc(N3Cc4c(cc(CN5CCCC5)cc4C(F)(F)F)C3=O)c2)COC1 | >=1.76 | >=0.201 | >=7.5 | >=1.76 | >=1.001 | 5 | < 100 | – | – | – | –
4 | C[C@@H](c1cc2c(c(C(F)(F)F)c1)CN(c1cccc(C3(C(F)(F)c4nncn4C)COC3)c1)C2=O)N1CC[C@H](F)C1 | 1.31 | >=0.201 | >=7.5 | 1.51 | >=1.001 | 2.51 | < 100 | – | – | – | –
5 | Cn1cnnc1CC1(c2cccc(NC(=O)c3csc(C(F)(F)F)n3)c2)COC1 | 1.01 | 0.051 | 1.01 | 1.01 | 0.601 | 1.01 | < 100 | – | – | – | –
6 | C[C@@H](c1cc2c(c(C(F)(F)F)c1)CN(c1cccc(C3([C@H](F)c4nncn4C)COC3)c1)C2=O)N1CCC2(CC2)C1 (single isomer, unassigned) | >=1.76 | >=0.201 | >=7.5 | >=1.76 | >=1.001 | >=7.5 | < 100 | – | – | – | –
7 | Cn1cnnc1CC1(c2cccc(N3Cc4c(cc(CN5[C@@H]6CC[C@H]5C[C@H](F)C6)cc4C(F)(F)F)C3=O)c2)COC1 | >=1.76 | >=0.201 | >=7.5 | >=1.76 | >=1.001 | 5 | < 100 | – | – | – | –
8 | COc1cc(C(=O)Nc2cccc(C3(Cc4nncn4C)COC3)c2)nc(C2CC2)n1 | 1.01 | 0.151 | >=7.5 | 1.31 | >=1.001 | 5 | < 100 | – | – | – | –
9 | CC[C@@H](c1cc2c(c(C(F)(F)F)c1)CN(c1cccc(C3(Cc4nncn4C)COC3)c1)C2=O)N1CC[C@H](F)C1 | 1.51 | >=0.201 | >=7.5 | 1.51 | >=1.001 | >=7.5 | < 100 | – | – | – | –
10 | Cn1cnnc1[C@@H](F)C1(c2cccc(N3Cc4c(cc(CN5C6CCCC5CC6)cc4C(F)(F)F)C3=O)c2)COC1 (stereo in doubt; 671a) | – | – | 5 | – | – | 2.51 | < 100 | 1.51 | >=0.201 | >=1.76 | 0.601
11 | Cn1cnnc1CC1(c2cccc(N3Cc4c(cc(CN5Cc6ccc(F)cc6C5)cc4C(F)(F)F)C3=O)c2)COC1 | 1.31 | >=0.201 | >=7.5 | 1.31 | >=1.001 | 5 | < 100 | – | – | – | –
12 | Cn1cnnc1CC1(c2cccc(N3Cc4c(cc(CN5CCC(F)(F)CC5)cc4C(F)(F)F)C3=O)c2)COC1 | 1.31 | >=0.201 | >=7.5 | 1.31 | >=1.001 | >=7.5 | < 100 | – | – | – | –
13 | Cc1cc(C(=O)Nc2cccc(C3(Cc4nncn4C)CCC3)c2)nc(C2CC2)n1 | 1.31 | 0.051 | >=7.5 | 1.31 | >=1.001 | >=7.5 | < 100 | – | – | – | –
14 | Cn1cnnc1CC1(c2cccc(N3Cc4c(cc(C(O)c5ccccc5)cc4C(F)(F)F)C3=O)c2)COC1 (centres undefined) | 1.31 | >=0.201 | >=7.5 | 1.31 | >=1.001 | 5 | < 100 | – | – | – | –
15 | COc1ccc2c(c1)CN(Cc1cc3c(c(C(F)(F)F)c1)CN(c1cccc(C4(Cc5nncn5C)COC4)c1)C3=O)C2 | 1.31 | >=0.201 | >=7.5 | 1.31 | >=1.001 | >=7.5 | < 100 | – | – | – | –
16 | Cn1cnnc1CC1(c2cccc(N3Cc4c(cc(C(F)(F)CO)cc4C(F)(F)F)C3=O)c2)COC1 | 1.01 | 0.101 | 1.01 | 1.01 | 0.801 | 1.01 | < 100 | – | – | – | –
17 | Cn1cnnc1CC1(c2cccc(N3Cc4c(cc(CN5CCOCC5)cc4C(F)(F)F)C3=O)c2)COC1 | 1.31 | >=0.201 | >=7.5 | 1.31 | >=1.001 | 2.51 | < 100 | – | – | – | –
18 | Cn1cnnc1CC1(c2cccc(N3Cc4c(cc(CN5CCCCC(F)C5)cc4C(F)(F)F)C3=O)c2)COC1 (centres undefined) | 1.31 | >=0.201 | >=7.5 | 1.31 | >=1.001 | 5 | < 100 | – | – | – | –
19 | Cn1cnnc1CC1(c2cccc(N3Cc4c(cc(CN5CCCC56COC6)cc4C(F)(F)F)C3=O)c2)COC1 | 1.01 | 0.151 | 5 | 1.31 | 0.801 | 1.01 | < 100 | – | – | – | –
20 | Cn1cnnc1C(F)(F)C1(c2cccc(N3Cc4c(cc(CN5CC[C@H](F)C5)cc4C(F)(F)F)C3=O)c2)CC1 | 1.01 | >=0.201 | >=7.5 | 1.31 | >=1.001 | 5 | < 100 | – | – | – | –
21 | CC(c1cc2c(c(C(F)(F)F)c1)CN(c1cccc(C3(Cc4nncn4C)COC3)c1)C2=O)N1CC(S(C)(=O)=O)C1 (centres undefined) | 1.01 | 0.101 | 1.01 | 1.01 | 0.601 | 1.01 | < 100 | – | – | – | –
22 | Cn1cnnc1C(F)(F)[C@](C)(F)c1cccc(NC(=O)c2cc(CN3CC[C@H](F)C3)nc(C3CC3)n2)c1 | 1.01 | 0.051 | 5 | 1.01 | 0.801 | 2.51 | < 100 | – | – | – | –
